Results from patent US8846719B2, “Isoxazolo-pyridine derivatives” (Roche Palo Alto LLC, priority 2007, dated 2014).

Molecular target: human GABA A receptor α5β3γ2 (Homo sapiens (Human), UniProt P18507+P31644)
Assay: [3H]flumazenil competition binding assay, human GABA A α5β3γ2 receptors expressed in HEK293 cells
Conditions: human receptor; displacement of [3H]flumazenil (0.5 nM); means of two determinations; read-out: hKi GABAAa5
Procedure: The affinity of compounds at GABA A receptor subtypes was measured by competition for [3H]flumazenil (85 Ci/mmol; Roche) binding to HEK293 cells expressing rat (stably transfected) or human (transiently transfected) receptors of composition α1β3γ2, α2β3γ2, α3β3γ2 and α5β3γ2.
Cell pellets were suspended in Krebs-tris buffer (4.8 mM KCl, 1.2 mM CaCl2, 1.2 mM MgCl2, 120 mM NaCl, 15 mM Tris; pH 7.5; binding assay buffer), homogenized by polytron for ca. 20 sec on ice and centrifuged for 60 min at 4° C. (50000 g; Sorvall, rotor: SM24=20000 rpm). The cell pellets were resuspended in Krebs-tris buffer and homogenized by polytron for ca. 15 sec on ice. Protein was measured (Bradford method, Bio-Rad) and aliquots of 1 mL were prepared and stored at −80° C.
Assays were incubated to equilibrium for 1 hour at 4° C. and harvested onto GF/C uni-filters (Packard) by filtration using a Packard harvester and washing with ice-cold wash buffer (50 mM Tris; pH 7.5). After drying, filter-retained radioactivity was detected by liquid scintillation counting. Ki values were calculated using Excel-Fit (Microsoft) and are the means of two determinations.

SMILES	Ki [nM]
Cc1nc(OCc2c(-c3ccccc3)noc2C)ccc1C(=O)NC1CCOCC1 [Example 60, 2-Methyl-6-(5-methyl-3-phenyl-isoxazol-4-ylmethoxy)-N-(tetrahydro-pyran-4-yl)-nicotinamide]	38.7
Cc1onc(-c2ccccc2)c1COc1cc(C(F)(F)F)c(C(=O)O)cn1 [Example 61, 6-(5-Methyl-3-phenyl-isoxazol-4-ylmethoxy)-4-trifluoromethyl-nicotinic acid]	18.4
Cc1onc(-c2ccccc2)c1COc1cc(C(F)(F)F)c(C(=O)NC(C)C)cn1 [Example 62, N-Isopropyl-6-(5-methyl-3-phenyl-isoxazol-4-ylmethoxy)-4-trifluoromethyl-nicotinamide]	14.6
COC(=O)c1cnc(OCc2c(-c3ccccc3)noc2C)c(Br)c1 [Example 64, 5-Bromo-6-(5-methyl-3-phenyl-isoxazol-4-ylmethoxy)-nicotinic acid methyl ester]	34.4
Cc1onc(-c2ccccc2)c1COc1ncc(C(=O)NC2CCOCC2)cc1Br [Example 65, 5-Bromo-6-(5-methyl-3-phenyl-isoxazol-4-ylmethoxy)-N-(tetrahydro-pyran-4-yl)-nicotinamide]	24.4
Cc1nc(OCc2c(-c3ccccc3)noc2C)c(Br)cc1C(=O)NC1CCOCC1 [Example 67, 5-Bromo-2-methyl-6-(5-methyl-3-phenyl-isoxazol-4-ylmethoxy)-N-(tetrahydro-pyran-4-yl)-nicotinamide]	47.3
Cc1onc(-c2ccccc2)c1COc1ccc(C(=O)N(C)C(C)C)cn1 [Example 70, N-Isopropyl-N-methyl-6-(5-methyl-3-phenyl-isoxazol-4-ylmethoxy)-nicotinamide]	53.1
Cc1onc(-c2ccccc2)c1COc1ccc(C(=O)N2CCOCC2(C)C)cn1 [Example 71, (3,3-Dimethyl-morpholin-4-yl)-[6-(5-methyl-3-phenyl-isoxazol-4-ylmethoxy)-pyridin-3-yl]-methanone]	80.8
CCOC(=O)c1ccc(OCc2c(-c3ccccc3)noc2C)nc1C [Example 72, 2-Methyl-6-(5-methyl-3-phenyl-isoxazol-4-ylmethoxy)-nicotinic acid ethyl ester]	19.3
Cc1onc(-c2ccccc2)c1COc1cccc(C#N)n1 [Example 73, 6-(5-Methyl-3-phenyl-isoxazol-4-ylmethoxy)-pyridine-2-carbonitrile]	20.9
Cc1onc(-c2ccccc2)c1COc1ccc(C2(O)COC2)cn1 [Example 74, 3-[6-(5-Methyl-3-phenyl-isoxazol-4-ylmethoxy)-pyridin-3-yl]-oxetan-3-ol]	28.1

Results, then the compound that gave them:

Ki [nM]	SMILES
10.7	Cc1onc(-c2ccccc2)c1COc1cc(C(F)(F)F)c(C(=O)NC2CCOCC2)cn1 [Example 63, 6-(5-Methyl-3-phenyl-isoxazol-4-ylmethoxy)-N-(tetrahydro-pyran-4-yl)-4-trifluoromethyl-nicotinamide]
1.4	Cc1cc(C(=O)NC2CCOCC2)cnc1OCc1c(-c2ccccc2)noc1C [Example 66, 5-Methyl-6-(5-methyl-3-phenyl-isoxazol-4-ylmethoxy)-N-(tetrahydro-pyran-4-yl)-nicotinamide]
18.6	Cc1onc(-c2ccccc2)c1COc1ncc(C(=O)NC(C)C)cc1Br [Example 68, 5-Bromo-N-isopropyl-6-(5-methyl-3-phenyl-isoxazol-4-ylmethoxy)-nicotinamide]
2.95	Cc1cc(C(=O)NC(C)C)cnc1OCc1c(-c2ccccc2)noc1C [Example 69, N-Isopropyl-5-methyl-6-(5-methyl-3-phenyl-isoxazol-4-ylmethoxy)-nicotinamide]
11.7	Cc1onc(-c2ccccc2)c1COc1ccc(C(=O)NCC2CCCOC2)cn1 (centres unmarked) [Example 76, 6-(5-Methyl-3-phenyl-isoxazol-4-ylmethoxy)-N-(tetrahydro-pyran-3-ylmethyl)-nicotinamide]
4.6	Cc1onc(-c2ccccc2)c1COc1ccc(C(=O)NCC2CCOC2)cn1 (centres unmarked) [Example 77, 6-(5-Methyl-3-phenyl-isoxazol-4-ylmethoxy)-N-(tetrahydro-furan-3-ylmethyl)-nicotinamide]
